Measured values reported in patent US20220289732A1, “HETEROCYCLIC WDR5 INHIBITORS AS ANTI-CANCER COMPOUNDS” (NOVARTIS AG, priority 2019, published 2022).

How the values were obtained:
[1] = molecular target: wild type MLL1 four-member complex (MLL1-4C) (Homo sapiens, UniProt P61964); experiment: MLL1 LC-MS assay (SAH production); type: biochemical; settings: read-out: (b) MLL LCMS Peptide Val.v.1 Qualified AC50
How it was run: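 SAH formation, measured by LC-MS/MS after a TFA quench containing d4-SAH, was normalised to no-compound and no-enzyme controls and fitted to a dose-response curve for IC50. Reactions ran 120 min at rt (pH 8.0 Tris buffer) with final 30 nM MLL1 four-member complex, 2.5 μM SAM and 10 μM biotinylated H3[1-21] peptide, after a 20-min enzyme/SAM-compound preincubation.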

MV4-11 cells = experiment: MV4-11 6-day cell growth CTG (CellTiter-Glo) assay; type: cell-based; settings: Homo sapiens, MV4-11, 144 h, 6 days, read-out: (c) MLL/WDR5 cell proliferation assay//MLL/WDR5 proliferation MV4:11 Qualified AC50
How it was run: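 IC50 comes from a dose-response fit of % inhibition relative to DMSO controls, with viable cells measured by CellTiter-Glo luminescence. Compounds were tested over 12 points (1:3, starting at 50 μM final) on MV4-11 cells plated at 300/well and grown 6 days.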

WDR5 = WDR5 (Homo sapiens, UniProt P61964); experiment: WDR5 HTRF binding assay; settings: read-out: (a) WDR5 HTRF Pep Val v.1[Inhibitor/IC50]Qualified AC50
How it was run: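 In this HTRF displacement format, biotinylated MLL1 WIN peptide (3762-3773, 20 nM) binds WDR5 (6 nM) in 25 mM Hepes pH 7.5 with 100 mM NaCl, 2 mM DTT and 0.1% BSA for 20 min at rt. Detection used streptavidin-APC/anti-His-Eu for 1 hr. IC50 came from dose-response fits of normalized signal; 15 nM biotin-PEG-His peptide served as counter assay.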

Compound | AC50 [1] [nM] | IC50 (WDR5) [nM] | AC50 (MV4-11 cells) [nM]
CCOc1cc([C@H](C)N2CCc3ccc(Cn4ccnc4NC)cc3C2=O)cnc1C#N [Example 97, (S)-3-ethoxy-5-(1-(7-((2-(methylamino)-1H-imidazol-1-yl)methyl)-1-oxo-3,4-dihydroisoquinolin-2(1H)-yl)ethyl)picolinonitrile] | 10 to 1000 | 10 to 1000 | 10 to 1000
CNc1nccn1Cc1cc(Br)c2ccn(Cc3ccc(F)c(OC)c3)c(=O)c2c1 [Example 99, 5-bromo-2-(4-fluoro-3-methoxybenzyl)-7-((2-(methylamino)-1H-imidazol-1-yl)methyl)isoquinolin-1(2H)-one] | 10 to 1000 | 10 to 1000 | 10 to 1000
CNc1nccn1Cc1cc(-c2cc(CO)cnc2Cl)c2ccn(Cc3cccc(OC)c3)c(=O)c2c1 [Example 100, 5-(2-chloro-5-(hydroxymethyl)pyridin-3-yl)-2-(3-methoxybenzyl)-7-((2-(methylamino)-1H-imidazol-1-yl)methyl)isoquinolin-1(2H)-one] | 10 to 1000 | 10 to 1000 | 10 to 1000
CNc1nccn1Cc1cc(-c2cc(CO)cnc2Cl)c2ccn(Cc3ccc(F)c(OC)c3)c(=O)c2c1 [Example 101, 5-(2-chloro-5-(hydroxymethyl)pyridin-3-yl)-2-(4-fluoro-3-methoxybenzyl)-7-((2-(methylamino)-1H-imidazol-1-yl)methyl)isoquinolin-1(2H)-one] | 10 to 1000 | 10 to 1000 | 10 to 1000
CNc1nccn1Cc1cc(-c2cc(CO)cnc2Cl)c2ccn([C@@H](C)c3cccc(OC)c3)c(=O)c2c1 [Example 102, (S)-5-(2-chloro-5-(hydroxymethyl)pyridin-3-yl)-2-(1-(3-methoxyphenyl)ethyl)-7-((2-(methylamino)-1H-imidazol-1-yl)methyl)isoquinolin-1(2H)-one] | 10 to 1000 | 10 to 1000 | 10 to 1000
CNc1nccn1Cc1cc(-c2cc(CO)cnc2Cl)c2ccn([C@H](C)c3cccc(OC)c3)c(=O)c2c1 [Example 103, (R)-5-(2-chloro-5-(hydroxymethyl)pyridin-3-yl)-2-(1-(3-methoxyphenyl)ethyl)-7-((2-(methylamino)-1H-imidazol-1-yl)methyl)isoquinolin-1(2H)-one] | 10 to 1000 | 10 to 1000 | 10 to 1000
CNc1nccn1Cc1cc(-c2cc(CO)cnc2Cl)c2ccn(Cc3ccc(OC)c(F)c3)c(=O)c2c1 [Example 104, 5-(2-chloro-5-(hydroxymethyl)pyridin-3-yl)-2-(3-fluoro-4-methoxybenzyl)-7-((2-(methylamino)-1H-imidazol-1-yl)methyl)isoquinolin-1(2H)-one] | 10 to 1000 | 10 to 1000 | 10 to 1000
CNc1nccn1Cc1cc(-c2cc(CO)cnc2Cl)c2ccn(Cc3ccc(OC)cc3)c(=O)c2c1 [Example 105, 5-(2-chloro-5-(hydroxymethyl)pyridin-3-yl)-2-(4-methoxybenzyl)-7-((2-(methylamino)-1H-imidazol-1-yl)methyl)isoquinolin-1(2H)-one] | 10 to 1000 | 10 to 1000 | 10 to 1000
CNc1nccn1Cc1cc(-c2cc(C(C)O)cnc2Cl)c2ccn(Cc3ccc(F)c(OC)c3)c(=O)c2c1 (stereo not drawn) [Example 106, 5-(2-chloro-5-(1-hydroxyethyl)pyridin-3-yl)-2-(4-fluoro-3-methoxybenzyl)-7-((2-(methylamino)-1H-imidazol-1-yl)methyl)isoquinolin-1(2H)-one] | 10 to 1000 | 10 to 1000 | 10 to 1000
CNc1nccn1Cc1cc(-c2cc(CO)cnc2Cl)c2ccn(Cc3cc4c(C)cccc4[nH]3)c(=O)c2c1 [Example 107, 5-(2-chloro-5-(hydroxymethyl)pyridin-3-yl)-2-((4-methyl-1H-indol-2-yl)methyl)-7-((2-(methylamino)-1H-imidazol-1-yl)methyl)isoquinolin-1(2H)-one] | 10 to 1000 | 10 to 1000 | 10 to 1000
CNc1nccn1Cc1cc(-c2cc(CO)cnc2Cl)c2ccn(Cc3cc4ccccc4[nH]3)c(=O)c2c1 [Example 108, 2-((1H-indol-2-yl)methyl)-5-(2-chloro-5-(hydroxymethyl)pyridin-3-yl)-7-((2-(methylamino)-1H-imidazol-1-yl)methyl)isoquinolin-1(2H)-one] | 10 to 1000 | 10 to 1000 | 10 to 1000

Now from value to compound, other results behind:

AC50 [1] [nM] | IC50 (WDR5) [nM] | Compound | AC50 (MV4-11 cells) [nM]
10 to 1000 | 10 to 1000 | CNc1nccn1Cc1cc2c(c(C(F)F)c1)CCN([C@@H](C)c1cc(OC)c(F)cn1)C2=O [Example 92, (S)-5-(difluoromethyl)-2-(1-(5-fluoro-4-methoxypyridin-2-yl)ethyl)-7-((2-(methylamino)-1H-imidazol-1-yl)methyl)-3,4-dihydroisoquinolin-1(2H)-one] | 10 to 1000
10 to 1000 | 10 to 1000 | CNc1nccn1Cc1cc2c(c(C(F)F)c1)CCN([C@@H](C)c1cnc(F)c(OC)c1)C2=O [Example 93, (S)-5-(difluoromethyl)-2-(1-(6-fluoro-5-methoxypyridin-3-yl)ethyl)-7-((2-(methylamino)-1H-imidazol-1-yl)methyl)-3,4-dihydroisoquinolin-1(2H)-one] | 10 to 1000
10 to 1000 | 10 to 1000 | CCOc1cc([C@H](C)N2CCc3ccc(Cn4ccnc4NC)cc3C2=O)cnc1Cl [Example 95, (S)-2-(1-(6-chloro-5-ethoxypyridin-3-yl)ethyl)-7-((2-(methylamino)-1H-imidazol-1-yl)methyl)-3,4-dihydroisoquinolin-1(2H)-one] | 10 to 1000
10 to 1000 | 10 to 1000 | CCOc1cc(CN2CCc3ccc(Cn4ccnc4NC)cc3C2=O)cnc1C#N [Example 96, 3-ethoxy-5-((7-((2-(methylamino)-1H-imidazol-1-yl)methyl)-1-oxo-3,4-dihydroisoquinolin-2(1H)-yl)methyl)picolinonitrile] | 10 to 1000
10 to 1000 | < 10 | CNc1nccn1Cc1cc(-c2cc(CO)cnc2Cl)c2ccn(Cc3cccc(OC(F)F)c3)c(=O)c2c1 [Example 98, 5-(2-chloro-5-(hydroxymethyl)pyridin-3-yl)-2-(3-(difluoromethoxy)benzyl)-7-((2-(methylamino)-1H-imidazol-1-yl)methyl)isoquinolin-1(2H)-one] | 10 to 1000
10 to 1000 | < 10 | CCOc1cc([C@H](C)N2CCc3c(cc(CCN(C)CC)cc3-c3ccc(F)nc3C)C2=O)ncc1C#N [Example 111, (S)-4-ethoxy-6-(1-(7-(2-(ethyl(methyl)amino)ethyl)-5-(6-fluoro-2-methylpyridin-3-yl)-1-oxo-3,4-dihydroisoquinolin-2(1H)-yl)ethyl)nicotinonitrile] | 10 to 1000
10 to 1000 | < 10 | CCOc1cc(CN2CCc3c(cc(CCN(C)CC)cc3-c3cc(C)cnc3Cl)C2=O)ncc1C#N [Example 112, 6-((5-(2-chloro-5-methylpyridin-3-yl)-7-(2-(ethyl(methyl)amino)ethyl)-1-oxo-3,4-dihydroisoquinolin-2(1H)-yl)methyl)-4-ethoxynicotinonitrile] | 10 to 1000
10 to 1000 | < 10 | CCN(C)CCc1cc2c(c(-c3cn(C)nc3C)c1)CCN([C@@H](C)c1cc(OC)c(F)cn1)C2=O [Example 113, (S)-5-(1,3-dimethyl-1H-pyrazol-4-yl)-7-(2-(ethyl(methyl)amino)ethyl)-2-(1-(5-fluoro-4-methoxypyridin-2-yl)ethyl)-3,4-dihydroisoquinolin-1(2H)-one] | 10 to 1000
